Test results published in article PMC3224403 (Indian Journal of Pharmaceutical Sciences, 2011).

How the values were obtained:
Type in all cases: in vivo
[1] = tested on: maximum electroshock seizure; test: Maximum electroshock seizure; conditions: dose 200 mg/Kg b.w. (5e, 5f: 150); Fischer's exact test
[2] = tested on: radiant heat induced rat tail flick; test: Radiant heat induced rat tail flick method; conditions: dose 200 mg/Kg b.w. (5e, 5f: 150)
[3] = tested on: adrenal weight; test: Adrenal weight change method; conditions: suppression of adrenal weights; dose 200 mg/Kg b.w. (5e, 5f: 150)
[4] = tested on: ulcers; test: Ulcerogenecity, arbitrary ulcer scoring system; conditions: dose 200 mg/Kg b.w. (5e, 5f: 150); p in parentheses
[5] = tested on: carrageenan-induced rat paw edema; test: Carrageenan-induced rat paw edema method
[6] = tested on: cotton pellet induced granulation tissue formation; test: Cotton pellet induced granulation tissue formation method; conditions: dose 200 mg/Kg b.w. (5e, 5f: 150)

| Compound | Anticonvulsant activity, MES protection [1] | Analgesic activity percent protection, Rat tail flick method [2] | Antiinflammatory activity Percentage Inhibition, Adrenal weight method [3] | Ulcer index [4] | Antiinflammatory activity Percentage Inhibition, Carrageenan method, 1 h ([5]; 1 h, dose 200 mg/Kg b.w. (5e, 5f: 150)) | Antiinflammatory activity Percentage Inhibition, Carrageenan method, 3 h ([5]; 3 h, dose 200 mg/Kg b.w. (5e, 5f: 150)) | Antiinflammatory activity, carrageenan-induced rat paw edema, after 6 h ([5]; 6 h as printed in the text) | Antiinflammatory activity Percentage Inhibition, Cotton pellet method [6] |
| --- | --- | --- | --- | --- | --- | --- | --- | --- |
| O=C1NC(=O)C(c2ccccc2)(c2ccccc2)N1 [phenytoin sodium] | 100% |  |  |  |  |  |  |  |
| CC(=O)Oc1ccccc1C(=O)O [aspirin] |  | 49.39% | 50.13% | 43.33 | 54.84% | 55.05% | 73.81% | 41.88% |
